Measured values published in patent publication US9790225B2, “4-amino-3-phenylamino-6-phenylpyrazolo[3,4-d]pyrimidine derivatives, their manufacture and their use as antiviral active substances” (Scandion Oncology A/S, priority 2011, dated 2017).
Where two headings read alike, the source gives them in different places. Blank lines part the entries; values can stand above or below the compound they belong to.

What was measured:
[1] = Acute toxicity in mice after single peroral administration; assay type: in vivo
Description: Tests: The acute toxicity of the substance CRCV-340 was tested in mice 19.5-20.5 g in weight, which was administered per os 40, 60, 80 or 120 mg substance/mouse (per 5 mice per substance and concentration). This corresponds to a dose of approx. 2 g, 3 g, 4 g or 6 g per kilogramme body weight. The toxic effects observed in the result correlated to the substance dose administered.

[2] = Stability in liver microsomes in vitro (ADMET); assay type: in vitro ADME; settings: in vitro
Excerpt: (§1) Objective: To investigate the Absorption, Distribution, Metabolism, Excretion and Toxicity (abbreviated as: ADMET) of OBR 5-340 in vitro, as well as in vitro tests on the plasma protein binding and the stability in the plasma and in liver microsomes. Tests: The In vitro tests performed with CRCV-340 as well as the data obtained are summarised in Table 2 in comparison with Ref. 2.

[3] = Pharmacokinetics in mice, single per os application, HPLC of plasma; assay type: in vivo; settings: mouse, plasma, po, mice, single intragastric 100 mg/kg; for AUC(0-t): read-out: AUC0-t (area under curve); for AUC(0-inf): read-out: AUC0-∞ (area under curve); for Cmax: read-out: Cmax (maximum concentration in the blood); for MRT: read-out: MRT (mean residence time); for half-life: read-out: T1/2 (half life) (converted); for Tmax: read-out: Tmax (time to reach the maximum concentration in the blood)
Description: Tests: Substance and reference substance were applied respectively once in a concentration of 100 mg/kg KG, in 0.5 ml of a 10% Cremophor solution per os to the mice, After 0.5, 1, 2, 3, 4, 5, 6 and 7 hrs serum was taken and by means of HPLC analysis the concentrations of CRCV-340, Ref-2 and Ref-3 determined in the plasma of the mice.
Using the substance concentrations in the blood plasma determined by HPLC the pharmacokinetic parameters of the substances were calculated using the computer program ESTRIP (Table 3).

plasma protein = test: Plasma protein binding and release in vitro (ADMET); assay type: in vitro ADME; settings: in vitro
Excerpt: as §1

[4] = Plasma stability in vitro (ADMET); assay type: in vitro ADME
Excerpt: as §1

[5] = tested on: human rhinovirus serotypes (HRV); test: zpE (cytopathic effect) inhibitory test with HRV serotypes; assay type: cell-based; settings: for IC50: Human rhinovirus sp.
Excerpt: (§2) Objective: To determine the antiviral effective spectrum of CRCV-340 in respect of 50 different human rhinovirus serotypes and CVB3 patient isolates.
(§3) Tests: The 50 HRV serotypes and 20 clinical CVB3 isolates were reproduced in HeLa, HeLa Wis and/or LF cells, their titre determined and the serotype verified using sequencing. Accordingly zpE (zytopathic effect) inhibitory tests with the HRV or plaque-reductions tests with the CVB3 isolates were established. In the corresponding antiviral tests dose effect investigations with Ref-3 and CRCV-340 were carried out. Tables 5 and 6 give an overview of the mean 50% inhibitory concentrations.

clinical CVB3 isolates = test: Plaque-reduction test with clinical CVB3 isolates; assay type: cell-based; settings: for IC50: Enterovirus B, CVB3
Excerpt: as §2, §3

[6] = in vivo; cited from earlier work
[7] = in vivo; cited from earlier work; remark: listed apart in the source
CVB3 31-1-93 [8] = test: Lethal mouse model of CVB3-induced myocarditis; assay type: in vivo; settings: CVB3 31-1-93-infected BALB/c mice, 100 mg/kg twice a day over 7 days
Description: Investigations: The effect of the development candidate CRCV-340 was examined following testing of the infection dose in the model of the CVB 3-induced myocarditis in 6-7 weeks old male BALB/c mice. In addition CVB3 31-1-93 or CVB3 H3-infected animals received twice a day 100 mg/kg of the substance in 20% PEG-400 in 1% CMC in water (placebo) administered over 7 days. Changes in body weight, general condition and the lethality defined through the surrogate marker 25% loss of body weight served as parameters to evaluate the therapeutic effect. Pseudo-infected, placebo-treated or CRCV-340-treated animals represented the negative control and infected, placebo- or pleconaril-treated animals the positive control over the course of the infection.

CVB3 31-1-93 [9] = test: Mouse model of CVB3-induced chronic myocarditis; assay type: in vivo; settings: CVB3 31-1-93-infected NMRI mice, 100 mg/kg once or twice a day over 7 days
Description: Investigations: The effect of CRCV-340 was investigated in the model of CVB 3-induced myocarditis in 8-week old male NMRI mice. In addition CVB3 31-1-93 or CVB3 H3-infected animals received once or twice a day 100 mg/kg of the substance in 50% or 20% PEG-400 in 1% CMC in water (placebo) administered over 7 days. Parameters to evaluate the therapeutic effect included changes in body weight, general condition, virus titre in heart and pancreas tissue as well as histopathological changes in the heart and pancreas. Pseudo-infected, placebo-treated or CRCV-340-treated animals served as a negative control and infected, placebo- or pleconaril-treated animals as a positive control over the course of the infection.

melting point: 272 to 274 °C
Compound: Nc1nc(-c2cc(C(F)(F)F)cc(C(F)(F)F)c2)nc2[nH]nc(Nc3ccc(Cl)cc3)c12 [MS-115]

melting point: 271 to 273 °C
Compound: Nc1nc(-c2ccccc2C(F)(F)F)nc2[nH]nc(Nc3ccc(Cl)cc3)c12 [MS-116]

melting point: 230 to 232 °C
Compound: Nc1nc(-c2cccc(C(F)(F)F)c2)nc2[nH]nc(Nc3ccccc3)c12 [MS-117]

Compound: Nc1nc(-c2ccccc2)nc2[nH]nc(Nc3ccccc3)c12 [Ref-2, 4-amino-3-(phenylamino)-6-phenylpyrazolo[3,4-d]pyrimidine]
LD50 at 72 h ([1]; mouse, in vivo, single peroral administration): 3930 mg/kg
LD50 ([1]; single peroral administration): 78.6 mg/mouse
Dead/Surviving 72 hrs after administration ([1]; single peroral dose 40 mg/mouse): 0/5
Dead/Surviving 72 hrs after administration ([1]; single peroral dose 60 mg/mouse): 1/5
Dead/Surviving 72 hrs after administration ([1]; single peroral dose 80 mg/mouse): 3/5
Dead/Surviving 72 hrs after administration ([1]; single peroral dose 120 mg/mouse): 4/5
Stability in liver microsomes [2]: 32.0%
AUC(0-t) [3]: 2350 ng·h/mL
AUC(0-inf) [3]: 2730 ng·h/mL
Cmax [3]: 1300 ng/mL
MRT [3]: 2.14 h
half-life [3]: 2.96 h
Tmax [3]: 1 h
Binding to plasma protein (plasma protein): 99.5%
Release of plasma protein (plasma protein): 61.0%
Plasma stability [4]: 117.0%

Compound: Nc1nc(-c2ccccc2)nc2[nH]nc(Nc3ccc(Cl)cc3)c12 [Ref-3, 4-amino-3-(4-chlorphenyl)amino-6-phenylpyrazolo[3,4-d]pyrimidine]
IC50 ([5]; read-out: IC50 Pleconaril-resistant HRV (n = 5), mean): 70 nM
IC50 ([5]; read-out: IC50 Pleconaril-sensitive HRV (n = 45), mean): 18500 nM
IC50 ([5]; read-out: IC50 all HRV (n = 50), mean): 16100 nM
Number of sensitive HRV ([5]; of 50 examined serotypes): 23
IC50 (clinical CVB3 isolates; mean over 19 pleconaril-sensitive isolates, read-out: IC50 Pleconaril-sensitive CVB3 (n = 19), mean): 710 nM
IC50 (clinical CVB3 isolates; mean over all 20 clinical isolates, read-out: IC50 all CVB3 (n = 20), mean): 680 nM
IC50 (clinical CVB3 isolates; the one pleconaril-resistant isolate, read-out: IC50 Pleconaril-resistant CVB3 (n = 1)): 130 nM
Number of sensitive CVB3 (clinical CVB3 isolates; of 20 clinical isolates, CRCV-340 maximum tested concentration 13.5 μM): 20
AUC(0-t) [3]: 1090 ng·h/mL
AUC(0-inf) [3]: 1090 ng·h/mL
Cmax [3]: 424 ng/mL
MRT [3]: 2.44 h
half-life [3]: 1.47 h
Tmax [3]: 0.5 h

melting point: 262 to 263 °C
Compound: Nc1nc(-c2ccccc2)nc2[nH]nc(Nc3ccc(F)cc3)c12 [Ref-5, 4-amino-3-[(4-fluorophenyl)amino]-6-phenylpyrazolo[3,4-d]pyrimidine]

Compound: Cc1cc(CCCCCCCOc2ccc(C3=NCCO3)cc2)on1 [disoxaril]
Metabolisation and excretion [6]: fast metabolisation and excretion
Bioavailability [7]: low bioavailability

Compound: Cc1cc(CCCOc2c(C)cc(-c3noc(C(F)(F)F)n3)cc2C)on1 [pleconaril]
Therapeutic effect (body weight, general condition, lethality) (CVB3 31-1-93 [8]): In contrast to the placebo and pleconaril CRCV-340 was effective
Bioavailability [7]: very good oral bioavailability
Therapeutic effect (body weight, general condition, virus titre in heart and pancreas, histopathology) (CVB3 31-1-93 [9]): in contrast to the placebo and pleconaril CRCV-340 was effective
